Drawing on patent US20160108027A1, “SUBSTITUTED BENZOXAZOLES” (BAYER PHARMA AKTIENGESELLSCHAFT, priority 2013, published 2016), this text covers IC50 for 25 molecules.

The target in test [1] is T1, thrombin (Homo sapiens, UniProt P00734). The experiment in a line: Determination of the thrombin-inhibitory activity in plasma samples (ecarin-activated). Format: biochemical. Particulars: citrate plasma, ecarin activation, fluorogenic thrombin substrate; in some cases means of individual determinations. As to the method:
To determine the inhibition of thrombin in plasma samples, plasma […] is activated by ecarin. Thrombin activity and/or its inhibition by potential inhibitors is/are then measured fluorenscently by addition of a substrate.
The substances to be tested are dissolved in various concentrations in dimethyl sulphoxide and diluted with water. In white 96-well flat-bottomed plates, 20 μl of substance dilution are mixed with 20 μl of ecarin solution (ecarin reagent, from Sigma E-0504, final concentration 20 mU per reaction) in Ca buffer (200 mM Hepes+560 mM sodium chloride+10 mM calcium chloride+0.4% PEG) or with 20 μl of Ca buffer (as unstimulated control). Furthermore, 20 μl of fluorogenic thrombin substrate (from Bachem 1-1120, final concentration 50 μmol/1) and 20 μl of citrate plasma (from Octapharma) are added, and the mixture is homogenized well. The plate is measured in a SpectraFluorplus Reader using a 360 nm excitation filter and a 465 nm emission filter every minute over 20 minutes. […] Representative activity data from this test are given in Table 2 below (in some cases as means of individual determinations): […]

The target in test [2] is T1, thrombin. The test can be described thus: Measurement of the thrombin inhibition in buffer. The class given is biochemical. Particulars: human thrombin 0.06 nmol/l in Tris buffer pH 7.4, 22° C., substrate Boc-Asp(OBzl)-Pro-Arg-AMC; in some cases means of individual determinations. The protocol: To determine the thrombin inhibition of the substances listed above, a biochemical test system is constructed in which the conversion of a thrombin substrate is used for determining the enzymatic activity of human thrombin. Here, thrombin cleaves aminomethylcoumarin, which is measured fluorescently, from the peptic substrate. The determinations are carried out in microtitre plates.
Substances to be tested are dissolved in various concentrations in dimethyl sulphoxide and incubated for 15 min with human thrombin (0.06 nmol/l dissolved in 50 mmol/l of Tris buffer [C,C,C-tris(hydroxymethyl)aminomethane], 100 mmol/l of sodium chloride, 0.1% BSA [bovine serum albumin], pH 7.4) at 22° C. The substrate (5 μmol/l Boc-Asp(OBzl)-Pro-Arg-AMC from Bachem) is then added. After 30 min of incubation, the sample is excited at a wavelength of 360 nm and the emission is measured at 460 nm. The measured emissions of the test mixtures with test substance are compared to the control mixtures without test substance (only dimethyl sulphoxide instead of test substance in dimethyl sulphoxide) and IC50 values are calculated from the concentration/activity relationships. Representative activity data from this test are given in Table 1 below (in some cases as means of individual determinations): […]

For the molecule `COc1cc(C(=O)N2CC(C)(CC(C)O)OCC2CF)cc2nc(NCc3cc(Cl)ccn3)oc12` (racemic) [Example 22, (2-{[(4-Chloropyridin-2-yl)methyl]amino}-7-methoxy-1,3-benzoxazol-5-yl) [5-(fluoromethyl)-2-(2-hydroxypropyl)-2-methylmorpholin-4-yl]methanone], the half-maximal inhibitory concentration (IC50) in test [1] amounted to 11 nM; in test [2], 1.7 nM.

In the case of `COc1cc(C(=O)N2CC(C)(CCO)OCC2(C)C)cc2nc(NCc3cc(Cl)ccn3)oc12` (racemic) [Example 32, (2-{[(4-Chloropyridin-2-yl)methyl]amino}-7-methoxy-1,3-benzoxazol-5-yl) [2-(2-hydroxyethyl)-2,5,5-trimethylmorpholin-4-yl]methanone], the 50% inhibitory concentration (IC50) in test [1] amounted to 36 nM; in test [2] it was 12 nM.

As for `COc1cc(C(=O)N2CC(C)(CC(C)O)OCC2(C)C)cc2nc(NCc3cc(Cl)ccn3)oc12` (racemic) [Example 34, (2-{[(4-Chloropyridin-2-yl)methyl]amino}-7-methoxy-1,3-benzoxazol-5-yl) [2-(2-hydroxypropyl)-2,5,5-trimethylmorpholin-4-yl]methanone], the IC50 amounted to 37 nM in test [1] and 7.3 nM in test [2].

For the molecule `COc1cc(C(=O)N2CC(C)(C)OCC2(C)CO)cc2nc(NCc3cc(Cl)ccn3)oc12` (racemic) [Example 38, (2-{[(4-Chloropyridin-2-yl)methyl]amino}-7-methoxy-1,3-benzoxazol-5-yl) [5-(hydroxymethyl)-2,2,5-trimethylmorpholin-4-yl]methanone], the IC50 in test [1] worked out at 22 nM; in test [2], 13 nM.

Regarding `COCC1COC(C)(C)CN1C(=O)c1cc(OC)c2oc(NCc3cc(Cl)ccn3)nc2c1` (racemic) [Example 41, (2-{[(4-Chloropyridin-2-yl)methyl]amino}-7-methoxy-1,3-benzoxazol-5-yl) [5-(methoxymethyl)-2,2-dimethylmorpholin-4-yl]methanone], the IC50 in test [1] and in test [2] was 50 nM throughout.

As to `COc1cc(C(=O)N2CC(C)(C)OCC2CF)cc2nc(NCc3cc(Cl)ccn3)oc12` (racemic) [Example 42, (2-{[(4-Chloropyridin-2-yl)methyl]amino}-7-methoxy-1,3-benzoxazol-5-yl) [5-(fluoromethyl)-2,2-dimethylmorpholin-4-yl]methanone], the IC50 in test [1] is 34 nM; in test [2], 27 nM.

Consider `COc1cc(C(=O)N2CC(C)OCC2(C)C)cc2nc(NCc3cc(Cl)ccn3)oc12` (racemic) [Example 44, (2-{[(4-Chloropyridin-2-yl)methyl]amino}-7-methoxy-1,3-benzoxazol-5-yl)(2,5,5-trimethylmorpholin-4-yl)methanone], for which, in test [2], the IC50 was found to be 32 nM.

Turning to `COc1cc(C(=O)N2CC(C)OCC2CC(C)(C)O)cc2nc(NCc3cc(Cl)ccn3)oc12` (racemic) [Example 55, (2-{[(4-Chloropyridin-2-yl)methyl]amino}-7-methoxy-1,3-benzoxazol-5-yl) [5-(2-hydroxy-2-methylpropyl)-2-methylmorpholin-4-yl]methanone], the IC50 in test [1] came to 33 nM; in test [2] it was 21 nM.

With `COc1cc(C(=O)N2CC(C)OCC2CCO)cc2nc(NCc3cc(Cl)ccn3)oc12` (racemic) [Example 70, (2-{[(4-Chloropyridin-2-yl)methyl]amino}-7-methoxy-1,3-benzoxazol-5-yl) [5-(2-hydroxyethyl)-2-methylmorpholin-4-yl]methanone], the figures for the IC50 in test [1] and in test [2] were 74 nM and 38 nM, respectively.

For `COc1cc(C(=O)N2CC3(CC3)NC(=O)C2C)cc2nc(NCc3cc(Cl)ccn3)oc12` (racemic) [Example 76, 7-[(2-{[(4-Chloropyridin-2-yl)methyl]amino}-7-methoxy-1,3-benzoxazol-5-yl)carbonyl]-6-methyl-4,7-diazaspiro[2.5]octan-5-one], the IC50 in test [1] was found to be 36 nM; in test [2], 19 nM.

Consider `CCC1C(=O)NC2(CC2)CN1C(=O)c1cc(OC)c2oc(NCc3cc(Cl)ccn3)nc2c1` (racemic) [Example 78, 7-[(2-{[(4-Chloropyridin-2-yl)methyl]amino}-7-methoxy-1,3-benzoxazol-5-yl)carbonyl]-6-ethyl-4,7-diazaspiro[2.5]octan-5-one], for which the IC50 in test [1] is 19 nM; in test [2], 13 nM.

Molecule `COc1cc(C(=O)N2CC(C)(C)NC(=O)C2CC(N)=O)cc2nc(NCc3cc(Cl)ccn3)oc12` (racemic) [Example 82, 2-{1-[(2-{[(4-Chloropyridin-2-yl)methyl]amino}-7-methoxy-1,3-benzoxazol-5-yl)carbonyl]-5,5-dimethyl-3-oxopiperazin-2-yl}acetamide] came in with an IC50 in test [2] of 170 nM.

With `COc1cc(C(=O)N2CC(C)(C)NC(=O)C2CC#N)cc2nc(NCc3cc(Cl)ccn3)oc12` (racemic) [Example 83, {1-[(2-{[(4-Chloropyridin-2-yl)methyl]amino}-7-methoxy-1,3-benzoxazol-5-yl)carbonyl]-5,5-dimethyl-3-oxopiperazin-2-yl}acetonitrile], the IC50 was 62 nM in test [1] and 36 nM in test [2].

As to `CCO[C@@H]1CC(CO)N(C(=O)c2cc(OC)c3oc(NCc4cc(Cl)ccn4)nc3c2)C1` (single isomer, unassigned) [Example 2], the results for the IC50 in test [1] and in test [2] were 19 nM and 6.2 nM, respectively.

Regarding `CCO[C@@H]1CC(CO)N(C(=O)c2cc(OC)c3oc(NCc4cc(Cl)ccn4)nc3c2)C1` (single isomer, unassigned) [Example 3], half-maximal inhibition in test [2] (IC50) was put at 330 nM.

In test [2], `CCO[C@@H]1CC(CO)N(C(=O)c2cc(OC)c3oc(NC(C)c4cc(Cl)ccn4)nc3c2)C1` (single isomer, unassigned) [Example 5] showed an IC50 of 2800 nM.

Regarding `COc1cc(C(=O)N2C[C@H](OCC(F)F)CC2CO)cc2nc(NCc3cc(Cl)ccn3)oc12` (single isomer, unassigned) [Example 7], the IC50 in test [1] worked out at 70 nM; in test [2], 37 nM.

For `[2H]C([2H])(C)O[C@@H]1CC(CO)N(C(=O)c2cc(OC)c3oc(NC(C)c4cc(Cl)ccn4)nc3c2)C1` (single isomer, unassigned) [Example 8], the IC50 in test [2] turned out to be 2600 nM.

As to `[2H]C([2H])(C)O[C@@H]1CC(CC#N)N(C(=O)c2cc(OC)c3oc(NCc4cc(Cl)ccn4)nc3c2)C1` (single isomer, unassigned) [Example 9], the figures for the IC50 in test [1] and in test [2] were 13 nM and 9.7 nM, respectively.

As for `COc1cc(C(=O)N2C[C@H](OC3CC3)C[C@H]2CO)cc2nc(NC(C)c3cc(Cl)ccn3)oc12` (single isomer, unassigned) [Example 14], in test [2], the IC50 was 550 nM.

For the molecule `COc1cc(C(=O)N2C[C@H](OC3CC3)C[C@H]2CO)cc2nc(NC(C)c3cc(Cl)ccn3)oc12` (single isomer, unassigned) [Example 15], the IC50 came to 21 nM in test [1] and 6.4 nM in test [2].

`COc1cc(C(=O)N2CC(C)(C)OCC2CC(C)O)cc2nc(NCc3cc(Cl)ccn3)oc12` (single isomer, unassigned) [Example 64, (2-{[(4-Chloropyridin-2-yl)methyl]amino}-7-methoxy-1,3-benzoxazol-5-yl) [5-(2-hydroxypropyl)-2,2-dimethylmorpholin-4-yl]methanone] gave an IC50 in test [2] of 44 nM.

Regarding `COc1cc(C(=O)N2CC(C)OCC2CC(C)O)cc2nc(NCc3cc(Cl)ccn3)oc12` (single isomer, unassigned) [Example 66, (2-{[(4-Chloropyridin-2-yl)methyl]amino}-7-methoxy-1,3-benzoxazol-5-yl) [5-(2-hydroxypropyl)-2-methylmorpholin-4-yl]methanone], half-maximal inhibition in test [2] (IC50) was put at 28 nM.

`COc1cc(C(=O)N2CC(C)OCC2CCO)cc2nc(NCc3cc(Cl)ccn3)oc12` (single isomer, unassigned) [Example 71, (2-{[(4-Chloropyridin-2-yl)methyl]amino}-7-methoxy-1,3-benzoxazol-5-yl) [5-(2-hydroxyethyl)-2-methylmorpholin-4-yl]methanone] registered an IC50 in test [2] of 97 nM.

`COc1cc(C(=O)N2CC(C)CCC2CC2(O)CC2)cc2nc(NCc3cc(Cl)ccn3)oc12` (single isomer, unassigned) [Example 88, (2-{[(4-Chloropyridin-2-yl)methyl]amino}-7-methoxy-1,3-benzoxazol-5-yl){2-[(1-hydroxycyclopropyl)methyl]-5-methylpiperidin-1-yl}methanone] showed an IC50 in test [2] of 6.6 nM.
